In patent US12667572B2, “Tricyclic compounds useful in the treatment of cancer, autoimmune and inflammatory disorders” (SCHRÖDINGER, INC., priority 2021, dated 2026) one finds IC50 data, which are given here for 8 compounds.

In experiment [1] the target is T1, full-length MALT1 protein His-MALT1(1-824) (Homo sapiens, UniProt Q9UDY8).
T1 construct: full-length MALT1 protein His-MALT1(1-824); His (N); made in house; host or cells: baculovirus-infected insect cells
T1 sequence (Q9UDY8 1-824): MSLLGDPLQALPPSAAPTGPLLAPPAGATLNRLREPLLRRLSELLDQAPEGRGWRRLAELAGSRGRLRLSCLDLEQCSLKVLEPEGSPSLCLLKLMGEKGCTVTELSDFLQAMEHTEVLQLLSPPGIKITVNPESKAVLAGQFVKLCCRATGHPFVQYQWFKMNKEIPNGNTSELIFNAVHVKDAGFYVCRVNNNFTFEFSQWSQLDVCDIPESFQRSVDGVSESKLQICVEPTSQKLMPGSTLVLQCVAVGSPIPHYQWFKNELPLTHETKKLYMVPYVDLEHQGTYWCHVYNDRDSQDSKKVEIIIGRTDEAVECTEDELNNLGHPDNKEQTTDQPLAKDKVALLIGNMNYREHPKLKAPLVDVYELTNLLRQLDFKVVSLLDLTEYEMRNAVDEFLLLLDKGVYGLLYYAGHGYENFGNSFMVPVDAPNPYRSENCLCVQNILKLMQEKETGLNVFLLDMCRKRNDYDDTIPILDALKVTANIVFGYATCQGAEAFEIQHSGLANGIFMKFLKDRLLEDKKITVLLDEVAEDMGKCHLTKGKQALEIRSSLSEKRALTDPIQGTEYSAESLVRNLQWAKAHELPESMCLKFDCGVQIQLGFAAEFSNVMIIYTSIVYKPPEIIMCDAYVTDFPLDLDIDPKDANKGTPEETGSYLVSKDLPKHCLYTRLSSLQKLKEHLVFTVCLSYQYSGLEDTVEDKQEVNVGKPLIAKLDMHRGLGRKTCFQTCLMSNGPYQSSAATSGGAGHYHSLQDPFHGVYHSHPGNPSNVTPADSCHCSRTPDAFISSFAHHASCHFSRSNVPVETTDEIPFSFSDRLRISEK
Briefly: MALT1 protease assay, Assay 2 (1 nM MALT1, Ac-LRSR-AMC substrate). The note with it: 1 nM MALT1, 50 μM Ac-LRSR-AMC, 2 h pre-incubation, 8 hr incubation at RT. It counts as biochemical. In a few lines:
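Compounds (0.1% DMSO final) sat 2 h at RT with insect-cell-expressed His-MALT1(1-824), in 50 mM Tris pH 7.5, 600 mM sodium citrate, 1 mM DTT, 1 mM EDTA, 0.05% BSA. Cleavage of 50 μM Ac-LRSR-AMC (Km ~100 μM) ran 8 h at RT, read as AMC fluorescence. IC50 and Hill coefficient fitted to % remaining activity.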

In experiment [2] the test system is IL10 secretion in OCI-LY10 cells. As to the kind of experiment: Human IL10 secretion assay, Assay 2 (MSD). It counts as cell-based. The following applies: 24 h incubation, Meso Scale Discovery, read-out: IL-10 Secretion IC50 [nM] Assay 2. As for the experimental part:
IL10 is one of the cytokines that are regulated via activation of NF-kB signaling. For example, in ABC-DLBCL cell lines, the activated NF-kB signaling leads to increased IL10 secretion. Inhibition of NF-kB signaling has been shown leading to decreased IL10 secretion.
Assay 2: OCI-LY10 cells were seeded in IMEM supplemented with 20% fetal bovine serum at 4.8×10^5 cells per 160 μL per well in 96-well V-bottom cell culture plates (corning, 3894), treated with 120 nL of 3-fold serial compound dilutions, starting at 4 mM. The final vehicle concentration was 0.075% DMSO in all wells. After a 24 h incubation, human IL-10 precoated plates (Meso Scale Discovery) were washed 3 times with PBST, and 50 μL culture medium was aspirated into the MSD plate and incubated at 4° C. overnight. The supernatant was then discarded, and the wells were washed 3 times with PB ST. SULFO-TAG Anti-human IL-10 Antibody (50×) was diluted 50-fold according to the Meso Scale Protocol, then 25 μL of SULFO-TAG Anti-human IL-10 Antibody (1×) was added. After 2 h of incubation at RT, the supernatant was discarded, and the well was washed 3 times with PBST. 2×read buffer was added and the signal was read on an MSD Sector S600. The effect of a particular compound on IL10 secretion is shown relative to the effect of DMSO; set as 100%. IC50 values (nM) were determined using 4-parametric curve-fitting.

Where two headings read alike, the source gives them in different places.

Take `C[C@@]1(C(F)(F)F)C[C@H](C(=O)Nc2cnc(-n3nccn3)c(C(F)(F)F)c2)c2cnc3cc(Cl)nn3c21` (single isomer, unassigned) [Example 54, N-(6-(2H-1,2,3-triazol-2-yl)-5˜(trifluoromethyl)pyridin-3-yl)-2-chloro-8-methyl-8-(trifluoromethyl)-7,8-dihydro-6H-cyclopenta[e]pyrazolo[1,5-a]pyrimidine-6-carboxamide]: the IC50 in experiment [1] was under 10 nM; in experiment [2] (Homo sapiens), 100 to 1000 nM.

`C[C@@]1(C(F)(F)F)C[C@H](C(=O)Nc2cnc(-n3nccn3)c(C(F)(F)F)c2)c2cnc3cc(Cl)nn3c21` (single isomer, unassigned) [Example 56, N-(6-(2H-1,2,3-triazol-2-yl)-5˜(trifluoromethyl)pyridin-3-yl)-2-chloro-8-methyl-8-(trifluoromethyl)-7,8-dihydro-6H-cyclopenta[e]pyrazolo[1,5-a]pyrimidine-6-carboxamide]: the concentration for half-maximal inhibition (IC50) in experiment [1] was under 10 nM; in experiment [2] it was 100 to 1000 nM.

In the case of `C[C@@]1(C(F)(F)F)C[C@H](C(=O)Nc2cnc(-n3nccn3)c(C(F)F)c2)c2cnc3cc(Cl)nn3c21` (single isomer, unassigned) [Example 64, 2-chloro-N-(5-(difluoromethyl)-6-(2H-1,2,3-triazol-2-yl)pyridin-3-yl)-8-methyl-8-(trifluoromethyl)-7,8-dihydro-6H-cyclopenta[e]pyrazolo[1,5-a]pyrimidine-6-carboxamide], the IC50 in experiment [1] was in the range of 10 to 100 nM; in experiment [2] (Homo sapiens) it was 100 to 1000 nM.

As for `C[C@]1(C(F)(F)F)C[C@H](C(=O)Nc2cnc(-n3nccn3)c(C(F)F)c2)c2cnc3cc(Cl)nn3c21` (single isomer, unassigned) [Example 66, 2-chloro-N-(5-(difluoromethyl)-6-(2H-1,2,3-triazol-2-yl)pyridin-3-yl)-8-methyl-8-(trifluoromethyl)-7,8-dihydro-6H-cyclopenta[e]pyrazolo[1,5-a]pyrimidine-6-carboxamide], the IC50 in experiment [1] was in the range of 10 to 100 nM; in experiment [2] (Homo sapiens), 100 to 1000 nM.

For the compound `CC1(C)CC(C(=O)Nc2cnc(OC(F)F)c(Cl)c2)c2cnc3cc(Cl)nn3c21` (single isomer, unassigned) [Example 68, 2-chloro-N-(5-chloro-6-(difluoromethoxy)pyridin-3-yl)-8,8-dimethyl-7,8-dihydro-6H-cyclopenta[e]pyrazolo[1,5-a]pyrimidine-6-carboxamide], the IC50 in experiment [1] was under 10 nM; in experiment [2] (Homo sapiens), 100 to 1000 nM.

With `CN(C(=O)c1ncc(NC(=O)[C@H]2CC(C)(C)c3c2cnc2cc(Cl)nn32)cc1C(F)F)C1CC1` (single isomer, unassigned) [Example 73, 2-chloro-N-(6-(cyclopropyl(methyl)carbamoyl)-5-(difluoromethyl)pyridin-3-yl)-8,8-dimethyl-7,8-dihydro-6H-cyclopenta[e]pyrazolo[1,5-a]pyrimidine-6-carboxamide], the IC50 is under 10 nM in experiment [1] and 10 to 100 nM in experiment [2] (Homo sapiens).

For `CC1(C)CC(C(=O)Nc2cnc(OC3CC3)c(Cl)c2)c2cnc3cc(Cl)nn3c21` (single isomer, unassigned) [Example 75, 2-chloro-N-(5-chloro-6-cyclopropoxypyridin-3-yl)-8,8-dimethyl-7,8-dihydro-6H-cyclopenta[e]pyrazolo[1,5-a]pyrimidine-6-carboxamide], the figures for the IC50 in experiment [1] and in experiment [2] (Homo sapiens) were 10 to 100 nM and 100 to 1000 nM, respectively.

`CC1(C)C[C@H](C(=O)Nc2cnc(OC(F)F)c(Cl)c2)c2cnc3cc(F)nn3c21` (single isomer, unassigned) [Example 77, N-(5-chloro-6-(difluoromethoxy)pyridin-3-yl)-2-fluoro-8,8-dimethyl-7,8-dihydro-6H-cyclopenta[e]pyrazolo[1,5-a]pyrimidine-6-carboxamide]: the half-maximal inhibitory concentration (IC50) in experiment [1] is under 10 nM; in experiment [2] (Homo sapiens) it was 10 to 100 nM.

As a reminder, the IC50 is the concentration at which inhibition is half-maximal.
